Experimental data reported in ChEMBL document CHEMBL3885881, “DrugMatrix”.

Organism: Rattus norvegicus
Assay: DrugMatrix - Regimen: Daily Repeat
Format: toxicity, organism-based, Sprague-Dawley
Set-up: regimen Daily Repeat, gender Male, age 6-8 weeks
Conditions: in vivo, po, route oral GAVAGE, vehicle .5 % CMC; for TOTAL PROTEIN / ALANINE AMINOTRANSFERASE / ALBUMIN / ALKALINE PHOSPHATASE / ASPARTATE AMINOTRANSFERASE / BLOOD UREA NITROGEN / CARBON DIOXIDE / CHLORIDE / CHOLESTEROL / CREATINE PHOSPHOKINASE / CREATININE / GLUCOSE / LACTATE DEHYDROGENASE / LIPASE / POTASSIUM / SODIUM / TOTAL BILIRUBIN: tissue Plasma; for ABSOLUTE BASOPHIL / ABSOLUTE EOSINOPHIL / ABSOLUTE LYMPHOCYTE / ABSOLUTE MONOCYTE / ABSOLUTE SEGMENTED NEUTROPHIL / BASOPHIL / EOSINOPHIL / ERYTHROCYTE COUNT / HEMATOCRIT / HEMOGLOBIN / LEUKOCYTE COUNT / LYMPHOCYTE / MEAN CORPUSCULAR HEMOGLOBIN / MEAN CORPUSCULAR HEMOGLOBIN CONCENTRATION / MEAN CORPUSCULAR VOLUME / MONOCYTE / NEUTROPHIL / NUCLEATED RED BLOOD CELLS / PLATELET COUNT: tissue Blood
[1] = 150 mg/kg, 120 h, dose level Low, time 5 day
[2] = 2000 mg/kg, 72 h, dose level High, time 3 day
[3] = 2000 mg/kg, 120 h, dose level High, time 5 day

C[C@@H]1CC[C@H]2[C@@H](C)C(=O)O[C@@H]3O[C@@]4(C)CC[C@@H]1[C@]32OO4 [ARTEMISININ]
TOTAL PROTEIN (150 mg/kg, 72 h, dose level Low, time 3 day): 6.7 G/DL
ABSOLUTE BASOPHIL [1]: 0 CELLS/uL
ABSOLUTE EOSINOPHIL [1]: 0 CELLS/uL
ABSOLUTE LYMPHOCYTE [1]: 11615.67 CELLS/uL
ABSOLUTE MONOCYTE [1]: 298.33 CELLS/uL
ABSOLUTE SEGMENTED NEUTROPHIL [1]: 986 CELLS/uL
BASOPHIL [1]: 0%
EOSINOPHIL [1]: 0%
ERYTHROCYTE COUNT [1]: 5.22 x10E6/uL
HEMATOCRIT [1]: 33.07%
HEMOGLOBIN [1]: 12.77 G/DL
LEUKOCYTE COUNT [1]: 12.9 x10E3/uL
LYMPHOCYTE [1]: 90%
MEAN CORPUSCULAR HEMOGLOBIN [1]: 24.43 pg
MEAN CORPUSCULAR HEMOGLOBIN CONCENTRATION [1]: 38.63 G/DL
MEAN CORPUSCULAR VOLUME [1]: 63.33 fL
MONOCYTE [1]: 2.33%
NEUTROPHIL [1]: 7.67%
NUCLEATED RED BLOOD CELLS [1]: 0 /100WBC
PLATELET COUNT [1]: 1315 x10E3/uL
ALANINE AMINOTRANSFERASE [1]: 48.67 u/L
ALBUMIN [1]: 3.93 G/DL
ALKALINE PHOSPHATASE [1]: 408.33 u/L
ASPARTATE AMINOTRANSFERASE [1]: 87.67 u/L
BLOOD UREA NITROGEN [1]: 18 mg/dL
CARBON DIOXIDE [1]: 27 mmol/L
CHLORIDE [1]: 101 MEQ/L
CHOLESTEROL [1]: 71.67 mg/dL
CREATINE PHOSPHOKINASE [1]: 464 u/L
CREATININE [1]: 0.19 mg/dL
GLUCOSE [1]: 139.33 mg/dL
LACTATE DEHYDROGENASE [1]: 476 u/L
LIPASE [1]: 10 u/L
POTASSIUM [1]: 6.65 MEQ/L
SODIUM [1]: 141.93 MEQ/L
TOTAL BILIRUBIN [1]: 0.2 mg/dL
TOTAL PROTEIN [1]: 5.93 G/DL
ABSOLUTE BASOPHIL [2]: 0 CELLS/uL
ABSOLUTE EOSINOPHIL [2]: 274 CELLS/uL
ABSOLUTE LYMPHOCYTE [2]: 15228 CELLS/uL
ABSOLUTE MONOCYTE [2]: 318.67 CELLS/uL
BASOPHIL [2]: 0%
EOSINOPHIL [2]: 1.67%
ERYTHROCYTE COUNT [2]: 5.42 x10E6/uL
HEMATOCRIT [2]: 33.43%
HEMOGLOBIN [2]: 13.03 G/DL
LEUKOCYTE COUNT [2]: 16.97 x10E3/uL
LYMPHOCYTE [2]: 89%
MEAN CORPUSCULAR HEMOGLOBIN [2]: 24.07 pg
MEAN CORPUSCULAR HEMOGLOBIN CONCENTRATION [2]: 39 G/DL
MEAN CORPUSCULAR VOLUME [2]: 61.67 fL
MONOCYTE [2]: 2%
NEUTROPHIL [2]: 7.33%
NUCLEATED RED BLOOD CELLS [2]: 0 /100WBC
PLATELET COUNT [2]: 1460 x10E3/uL
ALANINE AMINOTRANSFERASE [2]: 59.67 u/L
ALBUMIN [2]: 4 G/DL
ALKALINE PHOSPHATASE [2]: 390 u/L
ASPARTATE AMINOTRANSFERASE [2]: 112.33 u/L
BLOOD UREA NITROGEN [2]: 19.67 mg/dL
CARBON DIOXIDE [2]: 23.67 mmol/L
CHLORIDE [2]: 101.67 MEQ/L
CHOLESTEROL [2]: 97.67 mg/dL
CREATINE PHOSPHOKINASE [2]: 581.33 u/L
CREATININE [2]: 0.25 mg/dL
GLUCOSE [2]: 144.33 mg/dL
LACTATE DEHYDROGENASE [2]: 387.67 u/L
LIPASE [2]: 12.33 u/L
POTASSIUM [2]: 6.36 MEQ/L
SODIUM [2]: 142.67 MEQ/L
TOTAL BILIRUBIN [2]: 0.2 mg/dL
TOTAL PROTEIN [2]: 6 G/DL
ABSOLUTE BASOPHIL [3]: 0 CELLS/uL
ABSOLUTE EOSINOPHIL [3]: 156.67 CELLS/uL
ABSOLUTE LYMPHOCYTE [3]: 13145.33 CELLS/uL
ABSOLUTE MONOCYTE [3]: 96 CELLS/uL
ABSOLUTE SEGMENTED NEUTROPHIL [3]: 868.67 CELLS/uL
BASOPHIL [3]: 0%
EOSINOPHIL [3]: 1%
ERYTHROCYTE COUNT [3]: 5.52 x10E6/uL
HEMATOCRIT [3]: 33.57%
HEMOGLOBIN [3]: 13.27 G/DL
LEUKOCYTE COUNT [3]: 14.27 x10E3/uL
LYMPHOCYTE [3]: 92%
MEAN CORPUSCULAR HEMOGLOBIN [3]: 24.07 pg
MEAN CORPUSCULAR HEMOGLOBIN CONCENTRATION [3]: 39.53 G/DL
MEAN CORPUSCULAR VOLUME [3]: 60.87 fL
MONOCYTE [3]: 0.67%
NEUTROPHIL [3]: 6.33%
NUCLEATED RED BLOOD CELLS [3]: 0.33 /100WBC
PLATELET COUNT [3]: 1230 x10E3/uL
ALANINE AMINOTRANSFERASE [3]: 52.67 u/L
ALBUMIN [3]: 4.1 G/DL
ALKALINE PHOSPHATASE [3]: 299.67 u/L
ASPARTATE AMINOTRANSFERASE [3]: 83.33 u/L
BLOOD UREA NITROGEN [3]: 19.33 mg/dL
CARBON DIOXIDE [3]: 28.67 mmol/L
CHLORIDE [3]: 104 MEQ/L
CHOLESTEROL [3]: 75.33 mg/dL
CREATINE PHOSPHOKINASE [3]: 308.33 u/L
CREATININE [3]: 0.23 mg/dL
GLUCOSE [3]: 133 mg/dL
LACTATE DEHYDROGENASE [3]: 153.67 u/L
LIPASE [3]: 10.33 u/L
POTASSIUM [3]: 6.54 MEQ/L
SODIUM [3]: 147.4 MEQ/L
TOTAL BILIRUBIN [3]: 0.17 mg/dL
TOTAL PROTEIN [3]: 6.1 G/DL
